Assay: Human HepG2 cell viability assay in 384 well format
Assay type: toxicity, cell-based
Design: dose 125 nL, time 70.5 hour; concentration not given beside the values
Settings: HepG2 cells, read-out: Inhibition

SMILES | cytotoxicity at 70.5 h [%]
N#CC1COCCN1S(=O)(=O)c1ccc2c(c1)CCC2 (stereo not given) | -8.31
CN(C)C[C@H]1C[C@@H]2CN(C(=O)c3ccco3)C[C@@H]2O1 | -2.65
O=C(NCC1CCCOC1)c1ccc(-c2ccccc2)[nH]c1=O (stereo not given) | 0.0722
O=C1CC(c2ccc(C(=O)O)cc2)c2ncn(-c3cccc(Cl)c3)c2N1 (stereo not given) | -9.82
Cc1ccc(C(=O)NC2CCCN(C)C2)c(=O)[nH]1 (stereo not given) | -12.5
Cc1cc(C)n2nc(C(=O)N[C@H]3C[C@H]4CN(C)CCN4C3)cc2n1 | -6.02
O=C(c1ccccc1)N1CC[C@H]2C[C@@H](c3nnc(C4CC4)o3)O[C@@H]2C1 | -4.88
CN(CCCc1cnn(C)c1)Cc1cc2n(n1)CCNC2 | -4.75
COCCC1COC2(CCN(C(=O)c3ccccc3)CC2)C1 (stereo not given) | -7.59
Cc1nc(C(=O)N2CCCCC2c2ccc(CN(C)C)cc2)c(C)o1 (stereo not given) | -4.13
COCC(=O)N1CCC2(CC1)CN(S(C)(=O)=O)Cc1ccccc1O2 | -0.505
O=C(NCC1CC1)[C@@H]1CC[C@@H]2[C@@H](CCN2CCOCc2ccccc2)O1 | -9.94
COCCN(C)CC(=O)N1C[C@@H](C)[C@](O)(C(C)C)C1 | -1.28
CCCn1ccnc1-c1cccc(NC(=O)C2CCCOC2)c1 (stereo not given) | -5.58
CCNc1nc2c(s1)C(=O)CN(C(=O)NCCc1ccccc1)C2 | -17.7
O=C(Nc1cccc(CNCc2cccs2)c1)C1CC1 | -8.51
Cc1cc(C(F)(F)F)nn1CCCNC(=O)C1CCC1 | -4.63
Cn1cc(C[C@H]2[C@@H](O)CCN2C(=O)C2CC=CC2)cn1 | 7.47
O=C(CCO)N1CCC2(CCc3ccc(-c4ccoc4)cc32)CC1 | -12.5
Cc1ncccc1NS(=O)(=O)Cc1cccc(F)c1 | -2.53
CN(CC(=O)N1CCCC1Cn1cccn1)C1CC1 (stereo not given) | -14.3
Cc1ccc(Nc2nccc(C3CCCN(CC(=O)N(C)C)C3)n2)nc1 (stereo not given) | -16.1
C[C@@H]1C[C@H]2CN(C(=O)c3ccncn3)C[C@H]2O1 | -14.1
Cc1ccc(=O)n(CC2(O)CCN(Cc3cnc(N(C)C)nc3)CC2)n1 | 17.6
CCOC(=O)N1CCN(Cc2ccc(OCc3nccn3C)cc2)CC1 | 1.77
c1cnc(N2CCC(c3cc4cccnc4[nH]3)CC2)nc1 | -5.37
CC1=NN(CC(=O)N2CC[C@@H]3[C@@H](CCC(=O)N3CC(C)C)C2)CC1 | -1.09

SMILES | cytotoxicity at 70.5 h [%]
COc1ccc(Cn2c(CCc3c(C)n[nH]c3C)n[nH]c2=O)cc1 | -3.26
Cc1nnc(CN(C)C2CCN(Cc3nc4ccccc4n3C)C2)o1 (stereo not given) | -1.55
O=C(CCc1cc(Cl)no1)N1CCCCC1CCN1CCOCC1 (stereo not given) | -2.5
Cc1nc(NC2CCCC2)cc(C2CCN2C(=O)c2cccnc2)n1 (stereo not given) | -9.69
CN(Cc1noc2c1CCCC2)C(=O)Nc1cccc(S(N)(=O)=O)c1 | 17.1
Cc1nonc1CN(C)Cc1cnn(-c2ccc(F)cc2)c1 | 0.663
COc1ccc(C)cc1C(C)NC(=O)Cn1ccc(=O)n(C)c1=O (stereo not given) | -1.39
O=C(Nc1ccc(F)c(Cl)c1)N1CCCN([C@H]2COC[C@@H]2O)CC1 | -14.1
N[C@H]1CN(C(=O)c2ccc(CO)cc2)C[C@@H]1C1CC1 | 6.41
CCS(=O)(=O)N(C)CCCNC(=O)c1cc(Cl)cc2cccnc12 | -11
NC(=O)C1CN(C(=O)Nc2ccccc2Oc2ccccc2Cl)CCO1 (stereo not given) | -6.93
Cc1ccc2c(c1)C1(CCNCC1)CC2NCCO (stereo not given) | -1.58
O=C(c1ccc2sccc2c1)N1CCC(C(=O)O)(n2cccn2)CC1 | -6.51
CNc1ncccc1CN1CCN2CCN(C)CC2C1 (stereo not given) | -7.61
O=C(COc1cccc(Br)c1)N1CCN(c2nccs2)CC1 | 14.3
Cc1ccc(CC(=O)N2CCCC(n3ccnc3C(C)C)C2)cn1 (stereo not given) | -7.44
Cn1cc(NC(=O)N2CCC(NS(C)(=O)=O)CC2)ccc1=O | 2.55
CS(=O)(=O)NC1CCN(c2cccc(F)c2C#N)CC1 | -16.5
Cc1noc(C)c1C(=O)N1CCCC(c2nccn2Cc2cscn2)C1 (stereo not given) | -5.18
NC(=O)CNC1(c2ccc(Cl)cc2)CCCC1 | 0.922
CC(=O)NC(C)C1=CCCN(Cc2ccc(C(=O)O)cc2)C1 (stereo not given) | 2.27
COc1ccc(-c2ccc(C(=O)NS(C)(=O)=O)c(F)c2)cc1 | -5.82
CC(C)c1nc(C(=O)NCCn2ccnc2)nn1-c1cccc(F)c1 | -14.8
Cc1nc(N)cc(NCc2csc(N(C)C)n2)n1 | -4.3
O=C(c1ccc(O)nc1)N1CCC(Nc2cccnn2)CC1 | -8.37
COCC1CCN(S(=O)(=O)N2C[C@H](c3ccccc3)[C@@H](N)C2)CC1 | -1.87
Cc1ccc(F)cc1S(=O)(=O)NCc1[nH]ncc1Br | -0.985

SMILES | cytotoxicity at 70.5 h [%]
CC(C)Nc1cc(N2CCC(n3cc(CCO)nn3)CC2)ncn1 | 16.9
CC1(C)CC(N2Cc3nc(N4CCCC4)ncc3C2=O)CC(C)(C)N1 | -13.5
CN(C)C(=O)CN1CCn2cc(Cn3cccn3)nc2C1 | -10.4
COC1(CNC(=O)NCCOc2ccccc2)CCSC1 (stereo not given) | 1.02
CC(=O)Nc1nc(C(=O)N2CCCC(c3cc(C)[nH]n3)C2)cs1 (stereo not given) | -0.899
CCn1ncc2c1C(COCC1CC1)CN(C(=O)c1ccncn1)C2 (stereo not given) | -10.2
CC(C)C(O)C(C)(C)CNC(=O)NCc1ccc(-n2cncn2)cc1 (stereo not given) | -1.82
Cc1cc(CN2CCOC(C)(C(=O)N3CCOCC3)C2)no1 (stereo not given) | -2.61
Cc1ccccc1C(=O)N1C[C@@H]2OCCN(c3ncccn3)[C@@H]2C1 | 17.4
O=C(CCNC(=O)c1cccc(OC(F)F)c1)Nc1cccnc1 | -3.8
F[C@@H]1CN(C2CCC2)C[C@@H]1OCc1nc2ncccc2[nH]1 | 15.4
Cc1nc(CN2CCCn3c(nc(Cn4cncn4)cc3=O)C2)cs1 | 22.5
Cc1ccc(C(=O)O)c(N2Cc3cnc(C(C)(C)C)nc3C2)n1 | -14.8
O=C1COC2(CCN(CC3CC3)CC2)CN1c1cncnc1 | -13.3
CCSc1ccc(C(=O)N2CCC3(CC2)[C@H](O)C[C@@H]3O)s1 | -12.1
C=C(C)COc1ccccc1C(=O)N(C)C(C)c1c(C)n[nH]c1C (stereo not given) | -2.31
COCCN(C)C(=O)NCCc1coc(-c2ccc(C)cc2)n1 | 7.28
O=C(O)CN(Cc1ccsc1)CC1CCCO1 (stereo not given) | -2.27
Cc1nc2cc(NCc3cnn(C)c3)ccc2n1C | -2.05
Cc1nccc(NCc2cncc3c2CCN(CCN(C)C)C3)n1 | 3.96
O=C(c1ccoc1)N1CC[C@@H]2O[C@@H](COCc3ccncc3)CC[C@@H]21 | 10.2
Cc1noc([C@H]2C[C@H]3OCC[C@H]3N(Cc3scnc3C)C2)n1 | -7.11
CC(C)Cc1noc(CC2CCS(=O)(=O)C2)n1 (stereo not given) | -6.88
COc1nc2c(cc1C(=O)N1CC[C@H](CO)[C@@H](O)C1)CCC2 | -16.1
CSC1(CNC(=O)N(C)Cc2ccc(C)s2)CCOCC1 | 15.5
Cc1cc(Cl)ccc1NCc1cnn(C2CCS(=O)(=O)C2)c1 (stereo not given) | 5.78
